pKi: −log10 of the molar value. Converted amounts (≈) assume the structure as drawn.
Key:
[1] = system: Bacteria
Description: Inhibition of bacterial beta-lactamase KPC2 expressed in Escherichia coli BL21(DE3) assessed as cefotaxime MIC at 50 ug/ml incubated for 16 hrs by broth microdilution method (Rvb = 16 ug/ml)

[2] = system: Escherichia coli; test: microbe, parasite or virus in culture; type: functional; conditions: NCTC 10118, 16 h
[3] = target: Beta-lactamase (Escherichia coli) (UniProt Q7BB82); conditions: G69
[4] = system: Klebsiella pneumoniae; conditions: isolate 342
[5] = target: Metallo-beta-lactamase type 2 (Klebsiella pneumoniae) (UniProt C7C422); conditions: NCTC 13443
[6] = Inhibition of bacterial AmpC; set-up: species or system Bacteria

Metallo-beta-lactamase type 2 (Klebsiella pneumoniae), sequence (C7C422 whole entry): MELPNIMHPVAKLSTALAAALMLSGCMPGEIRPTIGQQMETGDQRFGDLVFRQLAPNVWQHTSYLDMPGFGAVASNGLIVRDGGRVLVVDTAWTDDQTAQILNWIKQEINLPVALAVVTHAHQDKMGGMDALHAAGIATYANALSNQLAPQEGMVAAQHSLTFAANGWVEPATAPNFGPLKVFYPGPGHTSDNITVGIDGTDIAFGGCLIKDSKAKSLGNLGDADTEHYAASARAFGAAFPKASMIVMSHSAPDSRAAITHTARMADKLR
Beta-lactamase (Escherichia coli), sequence (Q7BB82 as listed by the source): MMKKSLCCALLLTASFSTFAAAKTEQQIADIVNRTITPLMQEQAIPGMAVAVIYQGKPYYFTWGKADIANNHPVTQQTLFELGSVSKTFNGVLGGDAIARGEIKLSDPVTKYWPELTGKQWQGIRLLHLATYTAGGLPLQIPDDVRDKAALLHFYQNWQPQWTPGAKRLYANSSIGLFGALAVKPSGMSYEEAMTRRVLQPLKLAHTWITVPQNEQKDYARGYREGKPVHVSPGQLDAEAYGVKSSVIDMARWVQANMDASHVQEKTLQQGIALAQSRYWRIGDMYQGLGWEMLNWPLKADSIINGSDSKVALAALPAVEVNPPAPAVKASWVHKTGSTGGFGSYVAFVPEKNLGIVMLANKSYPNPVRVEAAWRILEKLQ

Compound | MIC [1] | MIC [2] | MIC [3] | MIC [4] | MIC [5] | pKi [6]
OB(O)c1cccc(Cn2cc(-c3ccccc3)nn2)c1 | < 0.03 µg/mL | ≤ 0.03 µg/mL | > 32 µg/mL | > 32 µg/mL | > 32 µg/mL | 
[N-]=[N+]=NCc1cccc(B(O)O)c1 | < 0.03 µg/mL | ≤ 0.03 µg/mL | 8 µg/mL (≈ 45.2 µM) | > 32 µg/mL | > 32 µg/mL | 
OB(O)c1ccc(Cn2cc(-c3ccccc3)nn2)cc1 | < 0.03 µg/mL | ≤ 0.03 µg/mL | > 32 µg/mL | > 32 µg/mL | > 32 µg/mL | 
OB(O)c1ccc(Cn2cc(-c3cccs3)nn2)cc1 | 0.12 µg/mL (≈ 0.421 µM) | ≤ 0.03 µg/mL | > 32 µg/mL | > 32 µg/mL | > 32 µg/mL | 
OB(O)c1cccc(Cn2cc(-c3ccccn3)nn2)c1 | < 0.03 µg/mL | ≤ 0.03 µg/mL | > 32 µg/mL | > 32 µg/mL | > 32 µg/mL | 
O=C(Cc1cccs1)N[C@@H](B(O)O)c1ccccc1 |  |  |  |  |  | 7.46
Nc1cccc(B(O)O)c1 |  |  |  |  |  | 5.15
OB(O)c1ccc(Cn2cc(-c3ccsc3)nn2)cc1 | < 0.03 µg/mL | ≤ 0.03 µg/mL | > 32 µg/mL | > 32 µg/mL | > 32 µg/mL | 
OB(O)c1ccc(Cn2cc(-c3cccnc3)nn2)cc1 | < 0.03 µg/mL | ≤ 0.03 µg/mL | > 32 µg/mL | > 32 µg/mL | > 32 µg/mL | 
COc1ccc(-c2cn(Cc3ccc(B(O)O)cc3)nn2)cc1 | 0.06 µg/mL (≈ 0.194 µM) | ≤ 0.03 µg/mL | > 32 µg/mL | > 32 µg/mL | > 32 µg/mL | 
O=C(O)C/C=C/c1c(B(O)O)sc2ccccc12 |  |  |  |  |  | 7.05
[N-]=[N+]=NCc1ccc(B(O)O)cc1 | < 0.03 µg/mL | ≤ 0.03 µg/mL | > 32 µg/mL | > 32 µg/mL | > 32 µg/mL | 
OB(O)c1cccc(Cn2cc(-c3ccsc3)nn2)c1 | < 0.03 µg/mL | ≤ 0.03 µg/mL | > 32 µg/mL | > 32 µg/mL | > 32 µg/mL | 
OB(O)c1ccc(Cn2cc(-c3ccccn3)nn2)cc1 | < 0.03 µg/mL | ≤ 0.03 µg/mL | > 32 µg/mL | > 32 µg/mL | > 32 µg/mL | 
OB(O)c1cccc(Cn2cc(-c3cccnc3)nn2)c1 | < 0.03 µg/mL | ≤ 0.03 µg/mL | > 32 µg/mL | > 32 µg/mL | > 32 µg/mL | 
OB(O)c1cccc(Cn2cc(-c3cccs3)nn2)c1 | < 0.03 µg/mL | ≤ 0.03 µg/mL | > 32 µg/mL | > 32 µg/mL | > 32 µg/mL | 
COc1ccc(-c2cn(Cc3cccc(B(O)O)c3)nn2)cc1 | 0.12 µg/mL (≈ 0.388 µM) | ≤ 0.03 µg/mL | 32 µg/mL (≈ 104 µM) | > 32 µg/mL | > 32 µg/mL | 
OB(O)c1cccc(/N=N/c2cc3ccccc3cc2O)c1 |  |  |  |  |  | 6.52
